From patent publication US7915276B2, “Berberrubine derivatives having antifungal activities” (priority 2006, dated 2011)

What was measured:
human pathogenic fungi = test: Antifungal activity against human pathogenic fungi (summary statements); type: cell-based
From the text: Candida albicans ATCC 10231, Candida lusitaniae ATCC 42720, Candida krusei ATCC 6258, Candida tropicalis ATCC 13803, Candida glabrata ATCC 48435, Candida parapsilosis ATCC 34136, Cryptococcus neoformans ATCC 36556, Aspergillus fumigatus ATCC 16424, Aspergillus flavus ATCC 64025, Aspergillus terreus ATCC 46941 and Mucor ramosissimus ATCC 90286 strains for the MIC (minimum inhibitory concentration) measurement were obtained from ATCC (American Type Culture Collection) in the U.S. The Candida albicans A207(clinical isolate) strain was used by isolating it from the patients.
The determination of MIC was performed according to the NCCLS (National Committee for Clinical Laboratory Standard) method. Each test sample solution was diluted two-fold and inoculated with a fungal suspension to reach a final inoculum size of 5×10^2 to 2.5×10^3 cell/mL. The Cryptococcus neoformans strain was cultured in the RPMI 1640 medium for 72 hours. Other strains were cultured for 48 hours.

[1] = system: Candida albicans A207 (clinical isolate); test: In vitro antifungal activity (MIC), NCCLS method; type: cell-based; conditions: 48 hours
How it was run: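 Test samples were serially diluted two-fold, then inoculated with fungus to a final cell density of 5×10^2 to 2.5×10^3 cell/mL, following the NCCLS method. Plates were cultured for 48 hours and the minimum inhibitory concentration recorded.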

[2] = system: Aspergillus terreus ATCC 46941; test: In vitro antifungal activity (MIC), NCCLS method; type: cell-based; conditions: for MIC (minimum inhibitory concentration): 48 hours
How it was run: (§1)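 MIC read as the lowest concentration inhibiting growth after 48 hours of culture. Setup follows NCCLS: compound diluted two-fold and inoculated at 5×10^2 to 2.5×10^3 cell/mL final.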

[3] = system: Candida glabrata ATCC 48435; test: In vitro antifungal activity (MIC), NCCLS method; type: cell-based
How it was run: (§2)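 Two-fold dilutions, final inoculum 5×10^2–2.5×10^3 cell/mL, NCCLS protocol; 48 h culture for these strains. MIC = minimum inhibitory concentration.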

[4] = system: Candida tropicalis ATCC 13803; test: In vitro antifungal activity (MIC), NCCLS method; type: cell-based; conditions: for MIC (minimum inhibitory concentration): 48 hours
How it was run: as §2

[5] = system: Candida albicans ATCC 10231; test: In vitro antifungal activity (MIC), NCCLS method; type: cell-based; conditions: for MIC (minimum inhibitory concentration): 48 hours
How it was run: as §2

[6] = system: Aspergillus flavus ATCC 64025; test: In vitro antifungal activity (MIC), NCCLS method; type: cell-based; conditions: for MIC (minimum inhibitory concentration): 48 hours
How it was run: as §1

Candida krusei ATCC 6258 = test: In vitro antifungal activity (MIC), NCCLS method; type: cell-based; conditions: for MIC (minimum inhibitory concentration): 48 hours
How it was run: as §2

[7] = system: Mucor ramosissimus ATCC 90286; test: In vitro antifungal activity (MIC), NCCLS method; type: cell-based; conditions: for MIC (minimum inhibitory concentration): 48 hours
How it was run: as §2

[8] = system: Aspergillus fumigatus ATCC 16424; test: In vitro antifungal activity (MIC), NCCLS method; type: cell-based; conditions: for MIC (minimum inhibitory concentration): 48 hours
How it was run: as §1

[9] = system: Candida parapsilosis ATCC 34136; test: In vitro antifungal activity (MIC), NCCLS method; type: cell-based
How it was run: as §2

[10] = system: Candida lusitaniae ATCC 42720; test: In vitro antifungal activity (MIC), NCCLS method; type: cell-based; conditions: for MIC (minimum inhibitory concentration): 48 hours
How it was run: as §2

[11] = system: Cryptococcus neoformans ATCC 36556; test: In vitro antifungal activity (MIC), NCCLS method; type: cell-based; conditions: 72 hours; for MIC (minimum inhibitory concentration): RPMI 1640 medium
How it was run: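 Broth microdilution per NCCLS: two-fold serial dilutions of test compound inoculated with fungal suspension at a final 5×10^2 to 2.5×10^3 cell/mL. Strains other than Cryptococcus neoformans were incubated 48 hours before MIC reading.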

[12] = target: T1, chitin synthase 2 of Saccharomyces cerevisiae ECY38-38A(pAS6) (Saccharomyces cerevisiae, UniProt P14180); test: In vitro enzyme assay for chitin synthase 2 of Saccharomyces cerevisiae (enzyme 2); type: biochemical; conditions: relative to polyoxin D (50% inhibitory activity = value 5)
T1 construct: made in house; host or cells: Saccharomyces cerevisiae ECY38-38A (chs1-23 chs2::LEU2 cal1/csd2) carrying plasmid pAS6, grown in galactose medium; 130,000 x g membrane pellet
T1 sequence (P14180 whole entry): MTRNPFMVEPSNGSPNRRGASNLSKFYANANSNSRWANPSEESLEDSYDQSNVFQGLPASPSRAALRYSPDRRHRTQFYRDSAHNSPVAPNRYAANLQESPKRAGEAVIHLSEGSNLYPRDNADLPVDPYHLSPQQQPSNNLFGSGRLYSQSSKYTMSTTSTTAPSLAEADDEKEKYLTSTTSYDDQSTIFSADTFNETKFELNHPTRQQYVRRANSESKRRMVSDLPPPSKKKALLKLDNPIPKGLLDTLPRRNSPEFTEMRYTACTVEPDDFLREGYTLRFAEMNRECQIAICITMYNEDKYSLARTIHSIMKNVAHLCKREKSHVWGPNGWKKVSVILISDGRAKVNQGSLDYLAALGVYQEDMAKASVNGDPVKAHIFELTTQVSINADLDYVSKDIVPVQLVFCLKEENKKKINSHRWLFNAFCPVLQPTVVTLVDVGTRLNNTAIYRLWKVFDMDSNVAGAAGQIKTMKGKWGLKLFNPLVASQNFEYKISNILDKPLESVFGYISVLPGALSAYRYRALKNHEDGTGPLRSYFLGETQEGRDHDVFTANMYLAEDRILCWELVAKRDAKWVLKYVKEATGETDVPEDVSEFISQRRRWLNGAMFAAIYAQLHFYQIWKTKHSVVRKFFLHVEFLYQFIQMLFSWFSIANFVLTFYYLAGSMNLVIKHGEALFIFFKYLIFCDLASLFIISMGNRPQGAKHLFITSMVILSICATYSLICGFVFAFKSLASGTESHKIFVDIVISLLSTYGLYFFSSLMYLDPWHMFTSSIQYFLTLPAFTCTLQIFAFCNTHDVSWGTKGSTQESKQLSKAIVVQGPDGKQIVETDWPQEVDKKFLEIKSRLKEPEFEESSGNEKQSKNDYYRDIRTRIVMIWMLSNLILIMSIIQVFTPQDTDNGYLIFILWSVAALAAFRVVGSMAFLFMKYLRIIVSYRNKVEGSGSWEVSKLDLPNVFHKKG
How it was run: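 Values are scores: 5 means 50% inhibition at the same concentration as polyoxin D, lower scores 2- to 16-fold higher concentration, higher scores ½ to ⅛. Radiolabel from 1.1 mM UDP-[14C]-GlcNAc was incorporated into TCA-insoluble chitin over 90 min at 30 °C (pH 7.5 Tris, 2 mM Co2+). The enzyme was a trypsin-activated membrane fraction from CHS2-only S. cerevisiae ECY38-38A(pAS6).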

[13] = target: T2, chitin synthase 1 of Candida albicans chs2 Δ chs 3 Δ (Candida albicans, UniProt P23316); test: In vitro enzyme assay for chitin synthase 1 of Candida albicans (enzyme 1); type: biochemical; conditions: relative to polyoxin D (50% inhibitory activity = value 5)
T2 construct: Crude enzyme was prepared using the Candida albicans chs2 Δ chs 3 Δ mutant; endogenous in cells; host or cells: Candida albicans chs2Δ/chs2Δ chs3Δ/chs3Δ mutant; 130,000 x g membrane pellet
T2 sequence (P23316 whole entry, stated change not applied): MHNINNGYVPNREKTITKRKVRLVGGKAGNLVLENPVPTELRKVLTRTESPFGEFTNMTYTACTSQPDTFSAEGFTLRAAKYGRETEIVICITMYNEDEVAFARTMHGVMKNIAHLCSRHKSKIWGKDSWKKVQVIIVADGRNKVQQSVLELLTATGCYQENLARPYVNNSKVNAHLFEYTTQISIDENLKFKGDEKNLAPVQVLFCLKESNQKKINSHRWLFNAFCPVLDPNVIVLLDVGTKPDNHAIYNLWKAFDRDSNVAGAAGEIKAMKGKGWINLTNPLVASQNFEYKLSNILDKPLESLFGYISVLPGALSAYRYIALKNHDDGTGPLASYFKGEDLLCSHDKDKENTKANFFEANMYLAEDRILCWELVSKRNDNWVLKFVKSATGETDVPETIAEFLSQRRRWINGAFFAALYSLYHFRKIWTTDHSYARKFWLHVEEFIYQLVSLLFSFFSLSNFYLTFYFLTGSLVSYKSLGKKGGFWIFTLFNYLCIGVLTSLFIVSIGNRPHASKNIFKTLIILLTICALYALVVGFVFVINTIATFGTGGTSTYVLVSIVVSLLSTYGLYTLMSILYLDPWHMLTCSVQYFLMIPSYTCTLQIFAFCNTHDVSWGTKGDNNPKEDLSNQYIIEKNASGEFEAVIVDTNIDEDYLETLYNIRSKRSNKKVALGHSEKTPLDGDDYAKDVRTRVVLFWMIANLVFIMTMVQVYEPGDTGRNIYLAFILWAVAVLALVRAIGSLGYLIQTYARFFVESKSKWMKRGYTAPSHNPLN
How it was run: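 Trypsin-activated crude membrane chitin synthase 1 from C. albicans chs2Δ chs3Δ was incubated 90 min at 30 °C with 1.1 mM UDP-[14C]GlcNAc and 2 mM cobalt acetate in Tris-HCl pH 7.5. Filtered TCA precipitate was counted by scintillation; values are scores 1–8 against polyoxin D (5 = same concentration).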

chitin synthases = test: Inhibitory activity against the chitin synthases (summary statements); type: biochemical
From the text: The inhibitory activities against the chitin synthase 1 of Candida albicans chs2 Δ chs 3 Δ (abbreviated as ‘enzyme 1’) and the chitin synthase 2 of Saccharomyces cerevisiae ECY38-38A(pAS6)(abbreviated as ‘enzyme 2’) was examined for compound Nos. 1 to 70 compound and polyoxin D, a positive control compound.
The inhibitory activity against the chitin synthase 1 prepared from Candida albicans and the chitin synthase 2 prepared from Saccharomyces cerevisiae were examined as follows. A reaction mixture containing 32 mM Tris-HCl (pH 7.5), 2 mM cobalt acetate, 1.1 mM UDP-[U-^14C]-N-acetyl-d-glucosamine (GlcNAc) (400,000 cpm/μmol), 2 μL of trypsin (0.75 mg/mL), 20 μL of each crude enzyme and 14 μL of each test sample was kept at 30° C. for 15 minutes to activate the enzyme. Then, 2 μL of trypsin inhibitor (1.5 mg/mL) was added and the mixture was kept in an ice bath for 10 minutes to deactivate trypsin. 2 μL of 0.8 M N-acetyl-d-glucosamine was added to a total volume of 50 μL and reaction was performed at 30° C. for 90 minutes. The reaction was stopped using 1 mL of 10% TCA solution and the reaction solution was filtered with a GF/C filter and dried at room temperature. After adding 3 mL of a scintillation cocktail solution, the amount of isotopes was measured using a liquid scintillation counter. Percentage inhibition against each enzyme was calculated by the following Equation 1.

[14] = Candida glabrata ATCC 48435, 48 hours
[15] = Candida parapsilosis ATCC 34136, 48 hours

Row | Molecule | MIC (minimum inhibitory concentration) [1] [µg/mL] | MIC (minimum inhibitory concentration) [2] [µg/mL] | MIC (minimum inhibitory concentration) [3, 14] [µg/mL] | MIC (minimum inhibitory concentration) [4] [µg/mL] | MIC (minimum inhibitory concentration) [5] [µg/mL] | MIC (minimum inhibitory concentration) [6] [µg/mL] | MIC (minimum inhibitory concentration) (Candida krusei ATCC 6258) [µg/mL] | MIC (minimum inhibitory concentration) [7] [µg/mL] | MIC (minimum inhibitory concentration) [8] [µg/mL] | MIC (minimum inhibitory concentration) [9, 15] [µg/mL] | MIC (minimum inhibitory concentration) [10] [µg/mL] | MIC (minimum inhibitory concentration) [11] [µg/mL] | Relative activity Enzyme 2 [12] | Relative activity Enzyme 1 [13] | other results
1 | 13-(4-Isopropylbenzyl)-9-O-butylberberrubine iodide [Compound No. 18] | 0.5 | 8 | 4 | 0.25 | 0.5 | 8 | 1 | 4 | 2 | 4 | 1 | 1 | 7 (compounds having the inhibitory activity at ½, ¼ and ⅛ lower concentrations than that of polyoxin D were given the values of 6, 7 and 8, respectively) | 4 (Compounds having the inhibitory activity at 2-fold, 4-fold, 8-fold and 16-fold higher concentrations than that of polyoxin D were given the values of 4, 3, 2 and 1, respectively) | antifungal activities compared with amphotericin B (in words) (human pathogenic fungi): comparable to that of amphotericin B; inhibitory activities against the chitin synthases (in words) (chitin synthases): exceptionally superior inhibitory activities
2 | 13-(4-tert-Butylbenzyl)-9-O-octylberberrubine chloride [Compound No. 42] | 0.25 | 4 | 1 | 0.125 | 0.25 | 4 | 1 | 2 | 2 | 1 | 0.5 | 0.5 | 6 (compounds having the inhibitory activity at ½, ¼ and ⅛ lower concentrations than that of polyoxin D were given the values of 6, 7 and 8, respectively) | 3 (Compounds having the inhibitory activity at 2-fold, 4-fold, 8-fold and 16-fold higher concentrations than that of polyoxin D were given the values of 4, 3, 2 and 1, respectively) | 
3 | 13-(4-tert-Butylbenzyl)-9-O-octylberberrubine iodide [Compound No. 10] | 0.25 | 4 | 2 | 0.125 | 0.25 | 4 | 1 | 2 | 2 | 2 | 0.5 | 1 | 5 (A compound having the same inhibitory activity as that of polyoxin D at the same concentration was given the value 5) | 3 (Compounds having the inhibitory activity at 2-fold, 4-fold, 8-fold and 16-fold higher concentrations than that of polyoxin D were given the values of 4, 3, 2 and 1, respectively) | 
4 | COc1ccc2c(Cc3ccc(C(C)(C)C)cc3)c3[n+](cc2c1OC)CCc1cc2c(cc1-3)OCO2.[Cl-] [Comparative compound 1, reference compound] |  |  |  |  |  |  |  |  |  |  |  |  | 3 (Compounds having the inhibitory activity at 2-fold, 4-fold, 8-fold and 16-fold higher concentrations than that of polyoxin D were given the values of 4, 3, 2 and 1, respectively) | 1 (Compounds having the inhibitory activity at 2-fold, 4-fold, 8-fold and 16-fold higher concentrations than that of polyoxin D were given the values of 4, 3, 2 and 1, respectively) | MIC ([1]; read-out: MIC (minimum inhibitory concentration)): 8 µg/mL; MIC ([2]; ATCC46941, 48 hours, read-out: MIC (minimum inhibitory concentration)): > 128 µg/mL; antifungal activities (in words) ([3]; Candida glabrata): no antifungal activities; MIC ([3]; Nakaseomyces glabratus, ATCC48435, Candida glabrata ATCC 48435, 48 hours, read-out: MIC (minimum inhibitory concentration)): > 128 µg/mL; MIC ([4]; ATCC13803, 48 hours, read-out: MIC (minimum inhibitory concentration)): 2 µg/mL; MIC ([5]; ATCC10231, 48 hours, read-out: MIC (minimum inhibitory concentration)): 4 µg/mL; MIC ([6]; ATCC64025, 48 hours, read-out: MIC (minimum inhibitory concentration)): > 128 µg/mL; MIC (Candida krusei ATCC 6258; Pichia kudriavzevii, ATCC6258, 48 hours, read-out: MIC (minimum inhibitory concentration)): 16 µg/mL; MIC ([7]; ATCC90286, 48 hours, read-out: MIC (minimum inhibitory concentration)): 128 µg/mL; MIC ([8]; ATCC16424, 48 hours, read-out: MIC (minimum inhibitory concentration)): 128 µg/mL; antifungal activities (in words) ([9]; Candida parapsilosis): no antifungal activities; MIC ([9]; Lodderomyces parapsilosis, ATCC34136, Candida parapsilosis ATCC 34136, 48 hours, read-out: MIC (minimum inhibitory concentration)): > 128 µg/mL; MIC ([10]; Clavispora lusitaniae, ATCC42720, 48 hours, read-out: MIC (minimum inhibitory concentration)): 8 µg/mL; MIC ([11]; ATCC36556, RPMI 1640 medium, read-out: MIC (minimum inhibitory concentration)): 8 µg/mL
5 | COc1ccc2c(Cc3ccc(C(C)C)cc3)c3[n+](cc2c1OCCCCCCCl)CCc1cc2c(cc1-3)OCO2.[I-] [Compound No. 22, 13-(4-Isopropylbenzyl)-9-O-(6-chlorohexyl)berberrubine iodide] | 0.5 | 8 | 2 | 0.5 | 0.5 | 8 | 1 | 4 | 2 | 2 | 2 | 1 | 5 (A compound having the same inhibitory activity as that of polyoxin D at the same concentration was given the value 5) | 2 (Compounds having the inhibitory activity at 2-fold, 4-fold, 8-fold and 16-fold higher concentrations than that of polyoxin D were given the values of 4, 3, 2 and 1, respectively) | 
6 | COc1ccc2cc3[n+](cc2c1O)CCc1cc2c(cc1-3)OCO2 [berberrubine] |  |  |  |  |  |  |  |  |  |  |  |  |  |  | MIC (human pathogenic fungi; berberrubine, the starting material, strains not specified): 256 to 512 µg/mL
